{"source": "patent US9371265B2", "about": "“Compositions and methods related to inhibitors of JAK kinase” (EP PHARMA, INC., priority 2012, dated 2016)", "key": {"[1]": {"molecular_target": "LKB1 (Homo sapiens, UniProt Q15831)", "sequence (Q15831 whole entry)": "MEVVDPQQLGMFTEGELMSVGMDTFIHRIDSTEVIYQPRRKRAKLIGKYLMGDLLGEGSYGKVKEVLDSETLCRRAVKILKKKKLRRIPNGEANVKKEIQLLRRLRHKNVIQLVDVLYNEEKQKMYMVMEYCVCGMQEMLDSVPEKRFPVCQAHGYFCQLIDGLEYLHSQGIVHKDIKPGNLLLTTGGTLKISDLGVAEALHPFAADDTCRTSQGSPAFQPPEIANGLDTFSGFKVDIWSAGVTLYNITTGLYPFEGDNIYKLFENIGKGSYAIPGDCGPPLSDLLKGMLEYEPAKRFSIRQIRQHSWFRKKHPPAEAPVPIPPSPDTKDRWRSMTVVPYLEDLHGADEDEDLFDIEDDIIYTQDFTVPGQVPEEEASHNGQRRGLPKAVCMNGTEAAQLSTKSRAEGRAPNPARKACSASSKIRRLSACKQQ", "assay": "Kinase panel: LKB1", "type": "biochemical", "conditions": "10 μM EP009", "method": "(§1) Achieving JAK3 selectivity remains a significant challenge in the development of new small molecules for the treatment of cancer and immune-derived diseases. As such, the inventors employed cell-based screening assays of small-molecule libraries based upon the chemical scaffold of the established JAK3 inhibitor NC1153 (Stepkowski et al., J Immunol. (2005), 175(7):4236-4246) EP009 (FIG. 2A) was selected as a lead compound due to improved intrinsic stability (>95% purity in various solvents at 37° C. for 24 hours; FIG. 3) and high-degree of JAK3 selectivity. To test JAK3 versus JAK2 specificity of EP009, the IL-2/JAK3-dependent Kit225, and IL-3/JAK2-dependent BaF/3 cell lines were used. Kit225 and BaF/3 cells growing in the presence of IL-2 or IL-3, respectively, were treated with ascending concentrations of EP009 for 12 hours and cellular JAK3 and JAK2 tyrosine phosphorylation levels detected by Western blot analysis (FIGS. 2B and 2C). Following densitometric analysis, EP009 was determined to dose-dependently reduce IL-2-mediated JAK3 tyrosine phosphorylation with a cellular 50% inhibitory concentration (IC50) between 10 and 20 μM (FIG. 2B). […] To globally evaluate specificity, the inhibitory activity of EP009 was measured against a panel of protein kinases distributed throughout the kinome using the scanEDGE profiling service (KINOMEscan). […]"}, "[2]": {"molecular_target": "DCAMKL1 (Homo sapiens, UniProt O15075)", "sequence (O15075 whole entry)": "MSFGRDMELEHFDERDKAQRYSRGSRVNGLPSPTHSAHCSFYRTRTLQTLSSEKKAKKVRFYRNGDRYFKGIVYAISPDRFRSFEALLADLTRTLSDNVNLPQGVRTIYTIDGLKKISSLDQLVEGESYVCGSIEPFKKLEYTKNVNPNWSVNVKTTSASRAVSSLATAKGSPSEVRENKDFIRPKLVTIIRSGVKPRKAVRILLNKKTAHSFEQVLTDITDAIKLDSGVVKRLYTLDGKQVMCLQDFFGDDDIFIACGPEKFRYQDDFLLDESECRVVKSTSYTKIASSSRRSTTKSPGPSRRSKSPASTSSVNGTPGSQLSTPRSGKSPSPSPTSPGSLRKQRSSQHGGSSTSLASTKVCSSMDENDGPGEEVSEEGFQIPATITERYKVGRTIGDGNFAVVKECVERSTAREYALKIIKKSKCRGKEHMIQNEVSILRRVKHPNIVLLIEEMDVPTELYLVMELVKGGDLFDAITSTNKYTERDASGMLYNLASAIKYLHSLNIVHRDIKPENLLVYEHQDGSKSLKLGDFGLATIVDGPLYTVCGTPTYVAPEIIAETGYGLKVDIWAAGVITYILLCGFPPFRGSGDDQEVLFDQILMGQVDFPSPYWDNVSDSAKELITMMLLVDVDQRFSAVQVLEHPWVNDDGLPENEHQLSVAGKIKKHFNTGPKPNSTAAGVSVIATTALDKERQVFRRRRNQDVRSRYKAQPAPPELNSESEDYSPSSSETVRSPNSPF", "assay": "Kinase panel: DCAMKL1", "type": "biochemical", "conditions": "10 μM EP009", "method": "as §1"}, "[3]": {"molecular_target": "MKNK1 (Homo sapiens, UniProt Q9BUB5)", "sequence (Q9BUB5 whole entry)": "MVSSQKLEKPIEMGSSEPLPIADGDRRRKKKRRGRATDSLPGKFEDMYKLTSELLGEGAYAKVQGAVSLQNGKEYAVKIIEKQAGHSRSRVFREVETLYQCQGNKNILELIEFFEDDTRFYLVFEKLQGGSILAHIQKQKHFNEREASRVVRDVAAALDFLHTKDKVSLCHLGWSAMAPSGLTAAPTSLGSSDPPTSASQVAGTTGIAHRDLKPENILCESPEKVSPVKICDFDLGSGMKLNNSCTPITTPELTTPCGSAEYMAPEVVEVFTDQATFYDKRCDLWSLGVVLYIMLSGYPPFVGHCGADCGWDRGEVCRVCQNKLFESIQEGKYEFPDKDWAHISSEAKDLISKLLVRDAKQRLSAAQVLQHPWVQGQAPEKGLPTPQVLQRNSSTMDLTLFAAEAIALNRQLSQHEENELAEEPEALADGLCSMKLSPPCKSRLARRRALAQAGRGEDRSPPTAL", "assay": "Kinase panel: MKNK1", "type": "biochemical", "conditions": "10 μM EP009", "method": "as §1"}, "[4]": {"molecular_target": "KIT(V559D, T670I) (Homo sapiens, UniProt P10721, T670I/V559D)", "sequence (P10721 26-976 V559D/T670I)": "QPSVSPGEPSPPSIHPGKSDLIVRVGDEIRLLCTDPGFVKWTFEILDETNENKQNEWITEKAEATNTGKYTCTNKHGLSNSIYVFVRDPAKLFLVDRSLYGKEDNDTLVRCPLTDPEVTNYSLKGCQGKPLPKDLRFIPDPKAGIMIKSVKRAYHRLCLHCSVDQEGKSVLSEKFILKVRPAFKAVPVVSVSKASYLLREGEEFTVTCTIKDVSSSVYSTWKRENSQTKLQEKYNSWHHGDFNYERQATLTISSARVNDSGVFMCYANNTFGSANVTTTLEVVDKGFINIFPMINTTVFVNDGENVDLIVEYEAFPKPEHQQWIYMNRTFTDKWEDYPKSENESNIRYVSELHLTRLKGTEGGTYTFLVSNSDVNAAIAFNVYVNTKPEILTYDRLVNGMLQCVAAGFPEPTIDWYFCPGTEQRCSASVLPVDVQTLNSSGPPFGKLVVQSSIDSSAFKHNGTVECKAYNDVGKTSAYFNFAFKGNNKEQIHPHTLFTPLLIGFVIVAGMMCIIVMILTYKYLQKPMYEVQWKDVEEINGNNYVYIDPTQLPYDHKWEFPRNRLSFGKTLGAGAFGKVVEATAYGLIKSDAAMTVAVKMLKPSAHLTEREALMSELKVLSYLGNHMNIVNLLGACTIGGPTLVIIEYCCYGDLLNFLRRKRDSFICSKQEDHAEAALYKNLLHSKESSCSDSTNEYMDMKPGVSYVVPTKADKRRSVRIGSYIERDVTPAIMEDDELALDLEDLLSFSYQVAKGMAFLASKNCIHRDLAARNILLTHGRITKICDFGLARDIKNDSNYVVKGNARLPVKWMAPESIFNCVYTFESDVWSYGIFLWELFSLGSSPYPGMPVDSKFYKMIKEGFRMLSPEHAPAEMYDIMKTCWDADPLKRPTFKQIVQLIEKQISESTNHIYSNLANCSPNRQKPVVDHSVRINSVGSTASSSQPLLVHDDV", "assay": "Kinase panel: KIT(V559D, T670I)", "type": "biochemical", "conditions": "10 μM EP009", "method": "as §1"}, "[5]": {"molecular_target": "RET (Homo sapiens, UniProt P07949)", "sequence (P07949 29-1114)": "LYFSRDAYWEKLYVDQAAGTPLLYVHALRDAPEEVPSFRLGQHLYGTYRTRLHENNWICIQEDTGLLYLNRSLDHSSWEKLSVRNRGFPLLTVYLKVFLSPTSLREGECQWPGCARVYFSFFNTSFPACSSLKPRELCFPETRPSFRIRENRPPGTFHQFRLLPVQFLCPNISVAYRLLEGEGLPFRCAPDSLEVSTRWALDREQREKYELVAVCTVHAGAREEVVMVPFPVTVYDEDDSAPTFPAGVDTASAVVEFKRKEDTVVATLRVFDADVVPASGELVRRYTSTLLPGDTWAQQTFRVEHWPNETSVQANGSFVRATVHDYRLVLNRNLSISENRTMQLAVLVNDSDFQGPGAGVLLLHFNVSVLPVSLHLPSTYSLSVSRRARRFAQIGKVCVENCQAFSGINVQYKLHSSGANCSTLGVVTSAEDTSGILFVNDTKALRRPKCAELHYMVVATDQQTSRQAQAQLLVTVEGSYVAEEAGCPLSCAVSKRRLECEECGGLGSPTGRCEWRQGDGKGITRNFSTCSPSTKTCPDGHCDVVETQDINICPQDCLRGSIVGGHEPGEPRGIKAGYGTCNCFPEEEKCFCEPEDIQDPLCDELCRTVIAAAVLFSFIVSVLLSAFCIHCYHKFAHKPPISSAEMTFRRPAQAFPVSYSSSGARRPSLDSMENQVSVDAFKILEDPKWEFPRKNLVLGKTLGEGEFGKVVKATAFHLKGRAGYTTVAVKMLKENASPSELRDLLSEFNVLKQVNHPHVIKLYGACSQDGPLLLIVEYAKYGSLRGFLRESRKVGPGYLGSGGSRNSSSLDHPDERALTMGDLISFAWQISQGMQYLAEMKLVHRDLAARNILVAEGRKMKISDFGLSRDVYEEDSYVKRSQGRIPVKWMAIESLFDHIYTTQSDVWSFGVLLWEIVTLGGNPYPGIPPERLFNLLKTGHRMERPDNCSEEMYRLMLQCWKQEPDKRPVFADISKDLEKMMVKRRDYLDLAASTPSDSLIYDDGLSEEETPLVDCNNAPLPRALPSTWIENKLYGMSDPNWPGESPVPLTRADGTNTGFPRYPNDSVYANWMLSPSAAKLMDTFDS", "assay": "Kinase panel: RET", "type": "biochemical", "conditions": "10 μM EP009", "method": "as §1"}, "[6]": {"molecular_target": "PDGFRB (Homo sapiens, UniProt P09619)", "sequence (P09619 33-1106)": "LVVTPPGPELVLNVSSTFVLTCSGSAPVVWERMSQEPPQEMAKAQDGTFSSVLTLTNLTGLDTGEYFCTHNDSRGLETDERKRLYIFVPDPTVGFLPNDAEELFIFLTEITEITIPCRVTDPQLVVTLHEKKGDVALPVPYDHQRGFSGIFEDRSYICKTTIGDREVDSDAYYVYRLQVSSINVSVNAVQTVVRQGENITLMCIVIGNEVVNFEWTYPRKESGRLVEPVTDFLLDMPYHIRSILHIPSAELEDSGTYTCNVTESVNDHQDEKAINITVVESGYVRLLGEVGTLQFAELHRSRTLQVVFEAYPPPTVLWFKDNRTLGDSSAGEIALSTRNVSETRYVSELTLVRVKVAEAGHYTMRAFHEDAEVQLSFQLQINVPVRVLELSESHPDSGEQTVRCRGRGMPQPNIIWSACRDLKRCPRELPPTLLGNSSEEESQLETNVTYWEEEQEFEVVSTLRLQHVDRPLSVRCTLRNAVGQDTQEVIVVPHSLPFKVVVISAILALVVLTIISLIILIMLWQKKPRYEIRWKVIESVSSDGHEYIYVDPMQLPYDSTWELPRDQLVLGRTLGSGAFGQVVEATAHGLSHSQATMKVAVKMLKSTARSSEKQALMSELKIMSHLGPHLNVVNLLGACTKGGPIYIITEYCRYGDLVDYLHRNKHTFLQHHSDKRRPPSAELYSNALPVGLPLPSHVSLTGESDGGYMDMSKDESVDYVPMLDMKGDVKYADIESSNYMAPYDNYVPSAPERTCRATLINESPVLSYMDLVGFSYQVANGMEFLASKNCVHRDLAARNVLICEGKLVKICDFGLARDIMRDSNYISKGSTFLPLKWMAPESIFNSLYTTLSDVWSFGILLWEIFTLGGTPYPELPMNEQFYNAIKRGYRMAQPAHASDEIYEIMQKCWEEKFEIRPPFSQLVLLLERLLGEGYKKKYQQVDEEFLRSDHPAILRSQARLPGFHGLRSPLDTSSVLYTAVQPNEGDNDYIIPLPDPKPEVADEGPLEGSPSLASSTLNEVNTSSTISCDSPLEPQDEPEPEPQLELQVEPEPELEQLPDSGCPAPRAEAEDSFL", "assay": "Kinase panel: PDGFRB", "type": "biochemical", "conditions": "10 μM EP009", "method": "as §1"}, "[7]": {"molecular_target": "SRC (Homo sapiens, UniProt P12931)", "assay": "Kinase panel: SRC", "type": "biochemical", "conditions": "10 μM EP009", "method": "as §1"}, "[8]": {"molecular_target": "BTK (Homo sapiens, UniProt Q06187)", "assay": "Kinase panel: BTK", "type": "biochemical", "conditions": "10 μM EP009", "method": "as §1"}, "[9]": {"molecular_target": "RIOK2 (Homo sapiens, UniProt Q9BVS4)", "assay": "Kinase panel: RIOK2", "type": "biochemical", "conditions": "10 μM EP009", "method": "as §1"}, "[10]": {"molecular_target": "T1, JAK2 (Mus musculus, UniProt Q62120)", "T1 construct": "cellular JAK3 and JAK2 tyrosine phosphorylation levels detected by Western blot analysis; endogenous in cells; host or cells: Ba/F3 (BaF/3)", "assay": "IL-3-induced JAK2 tyrosine phosphorylation in BaF/3 cells (IP/Western blot)", "type": "cell-based, murine", "conditions": "12 hours, concentrations up to 50 μM", "method": "FIGS. 2A-2F. Selective inhibition of JAK3 by EP009 results in loss of JAK3-dependent tumor cell line viability with no detectable off-target effects in key cell types. (A) Chemical structure of EP009 (M.W. 224.34). (B) Kit225 or (C) BaF/3 cells cultured in the presence of IL-2 or IL-3, respectively, were treated with vehicle (PBS; lane a) or increasing amounts of EP009 (0-50 μM; lanes b-h) for 12 hours. Cells were then lysed, clarified, and immunoprecipitated (IP) with anti-JAK3 (α-JAK3) or anti-JAK2 (α-JAK2), and subjected to Western blot (WB) analysis with anti-phosphotyrosine (α-pY). Blots were stripped and reprobed with corresponding antibody to verify equivalent protein loading. […] (E) Kit225 or BaF/3 cells were cultured with increasing amounts of EP009 (0-10 μM) for 72 hours and cell viability measured with the MTS tetrazolium salt assay. Values represent mean absorbance (OD490-OD650 nm) normalized to vehicle (PBS) treated control cells, while error bars represent the standard deviation (n=3). (F) HEK293, HEPG2, or naïve primary human PBMCs were cultured with increasing amounts of EP009 (0-10 μM) for 72 hours and cell viability measured with the MTS tetrazolium salt assay. Values represent mean absorbance (OD490-OD650 nm) normalized to vehicle (PBS) treated control cells, while error bars represent the standard deviation (n=3). […]"}}}
{"smiles": "C=C1CCCCCCCCCC(CO)C1=O", "note": "(stereo not shown) [EP009, 2-(Hydroxymethyl)-12-methylenecyclododecanone]", "values": [{"measurement": "Kinase Activity (% of Control)", "setting": "[1]", "value": "100 % of Control"}, {"measurement": "Kinase Activity (% of Control)", "setting": "[2]", "value": "100 % of Control"}, {"measurement": "Kinase Activity (% of Control)", "setting": "[3]", "value": "100 % of Control"}, {"measurement": "Kinase Activity (% of Control)", "setting": "[4]", "value": "94 % of Control"}, {"measurement": "Kinase Activity (% of Control)", "setting": "[5]", "value": "100 % of Control"}, {"measurement": "Kinase Activity (% of Control)", "setting": "[6]", "value": "100 % of Control"}, {"measurement": "Kinase Activity (% of Control)", "setting": "[7]", "value": "100 % of Control"}, {"measurement": "Kinase Activity (% of Control)", "setting": "[8]", "value": "91 % of Control"}, {"measurement": "Kinase Activity (% of Control)", "setting": "[9]", "value": "69 % of Control"}, {"measurement": "effect on IL-3-induced JAK2 tyrosine phosphorylation", "setting": "[10]", "value": "no detectable effect"}]}
